{"source": "patent US11357809B2", "about": "“Herbal preparation for stimulation of hair growth, control of hair fall, dandruff and infections thereof using Ageratum spp” (GE Nutrients, Inc., priority 2019, dated 2022)", "key": {"bovine corneas": {"test_system": "bovine corneas", "assay": "Bovine Corneal Opacity and Permeability assay (ocular irritation)", "excerpt": "SUMMARY: This test was designed to assess the ocular irritation potential of a non-surfactant, liquid article such as Ageratum conyzoides extract. The test is a modification of that described by Gautheron, et. al. (“Bovine Corneal Opacity and Permeability Test: An In Vitro Assay of Ocular Irritancy” Fund. Appl. Toxicol. 18:442-449 (1992)), and Vanparys, et al. (“Evaluation of the bovine opacity-permeability assay as an in vitro alternative to the Draize eye irritation test” Toxicol. In Vitro 7:471-76 (1994)).\nBovine eyes were obtained by this facility from a local abattoir. The eyes were transported in an appropriate container containing Hank's balanced salt solution (HBSS, Sigma Chemical Co., H-1387). Transportation and storage of the eyes was at approximately 21° C. (70° F.). The eyes were used the day of their harvest and transport.\nUpon test initiation, the iris and the lens were removed and the corneas were placed in the bovine cornea holders. The endothelial surface was applied to the O-ring of the posterior part of the holder. The anterior part of the holder was placed against the epithelial side of the cornea. The two sides of the holder were screwed together. The bovine holders' components were then filled with pre-warmed Eagle's Minimum Essential Media (EM EM, Sigma Chemical Co., M-3024) with 1% Fetal Bovine Serum (FBS, American Type Culture Collection) at approximately 32° C.±2° C. (90° F.±4° F.). The posterior chamber was filled first. The corneas were incubated for approximately one hour, in a 32° C.±2° C. (90° F.±4° F.) water bath. This allowed for the pre-equilibration of the corneas to the external medium.\nAfter the pre-equilibration period, media from both of the chamber of the cassettes was aspirated, with the anterior chamber being aspirated first. Each chamber was then refilled with fresh EMEM, with the posterior chamber being filled first. Initial opacity readings were taken and recorded. Corneas with initial readings greater than […] were not used. Three corneas were assigned to each test and control article. The corneas with the lowest readings were used as the negative controls.\nThe test article and the positive control article (ethanol) and the negative control article (physiological saline) were each tested at 100%.\nA volume of 0.75 milliliters of the appropriate article, pre-warmed to 32° C.±2° C. (90° F.±4° F.), was introduced into the anterior chamber of the appropriate cassettes. The anterior chambers were then plugged and turned to a horizontal position. They were then rotated slightly, so that the article uniformly covered each cornea. The cassettes were incubated for 10 minutes at 32° C.±2° C. (90° F.±4° F.), in a water bath.\nThe anterior chambers of each cassette were then refilled with fresh EMEM via syringe. After refilling, the chambers were again plugged. All corneas were then incubated for 2 hours at approximately 32° C.±2° C. (90° F.±4° F.), in a water bath.\nAfter this 2 hour incubation period, all compartments were emptied and refilled with fresh EMEM. Each holder was individually placed in the “positive” compartment, while the “negative” compartment was left empty. The glass portion of each holder was dried prior to the reading. The opacity of each cornea was taken and recorded. The corneas were also observed grossly. Any unusual findings, such as opaque spots, were recorded.\nAfter the opacity readings were completed, the medium was removed from the anterior chambers. Either a suitable pipette tip or a flat ended needle was used for this procedure. One milliliter of 6 mg/ml fluorescein (Sodium Fluorescein, Sigma-Aldrich, F-637 in Dulbecco's Phosphate Buffered Saline (DPBS Sigma-Aldrich) pH approximately 7.5) solution was added to each of the anterior chambers. A micro pipette was used for this procedure.\nAfter the fluorescein solution was added to each anterior compartment, the compartments were plugged. The cassettes were then incubated, in a horizontal position, for 90 minutes at 32° C.±2° C."}, "5-alpha-reductase enzyme": {"test_system": "5-alpha-reductase enzyme", "details": "constituents of Ageratum spp. extracts; no test described; cited from earlier work"}, "[1]": {"details": "individual cornea, negative control average subtracted"}, "[2]": {"details": "mean of three corneas, article at 100%"}}, "note": "Several values for one entry are separate records, joined by “and”; a condition that tells them apart may be missing. Equal values may be shown once."}
{"smiles": "CCO", "note": "[+Control, Ethanol]", "values": [{"measurement": "Difference (terminal minus initial opacity)", "setting": "bovine corneas; individual cornea, article at 100%", "value": "51 and 45 and 54"}, {"measurement": "Terminal Opacity", "setting": "bovine corneas; individual cornea, article at 100%, 10 minute exposure, 2 hour incubation", "value": "56 and 46 and 55"}, {"measurement": "Initial Opacity", "setting": "bovine corneas; individual cornea, baseline reading before exposure", "value": "2 and 1 (2×)"}, {"measurement": "Optical Density490", "setting": "bovine corneas; individual cornea, fluorescein permeability, 90 minutes", "value": "1.239 and 0.662 and 1.663"}, {"measurement": "Corrected Corneal Opacity", "setting": "bovine corneas; [1]", "value": "48.3 and 42.3 and 51.3"}, {"measurement": "Corrected OD490", "setting": "bovine corneas; [1]", "value": "1.233 and 0.656 and 1.657"}, {"measurement": "In Vitro Score", "setting": "bovine corneas; individual cornea, Corrected Corneal Opacity + 15 x Corrected OD490", "value": "65.8 and 52.5 and 76.2"}, {"measurement": "Mean Corrected OD490", "setting": "bovine corneas; mean of three corneas", "value": 1.182}, {"measurement": "Average In Vitro Score", "setting": "bovine corneas; [2]", "value": 65.0}, {"measurement": "Mean Corrected Corneal Opacity", "setting": "bovine corneas; [2]", "value": 47.3}]}
{"smiles": "CC/C=C\\C/C=C\\C/C=C\\CCCCCCCC(=O)O", "note": "[Alpha-linolenic acid]", "values": [{"measurement": "identified as 5-alpha-reductase inhibitor", "setting": "5-alpha-reductase enzyme", "value": "5-alpha-reductase inhibitors"}]}
{"smiles": "O=C1CCc2ccccc2O1", "note": "[Hydrocoumarin]", "values": [{"measurement": "identified as 5-alpha-reductase inhibitor", "setting": "5-alpha-reductase enzyme", "value": "5-alpha-reductase inhibitors"}]}
{"smiles": "CCCCC/C=C\\C/C=C\\CCCCCCCC(=O)O", "note": "[9,12-octadecadienoic acid (Z,Z)-]", "values": [{"measurement": "identified as 5-alpha-reductase inhibitor", "setting": "5-alpha-reductase enzyme", "value": "5-alpha-reductase inhibitors"}]}
{"smiles": "CCCCCCCCCCCCCCCC(=O)O", "note": "[Hexadecanoic acid]", "values": [{"measurement": "identified as 5-alpha-reductase inhibitor", "setting": "5-alpha-reductase enzyme", "value": "5-alpha-reductase inhibitors"}]}
